This is an account of results in patent US20170349548A1, “P21-ACTIVATED KINASE INHIBITOR” (Biosystem Consulting Limited Company, priority 2014, published 2017).

Values joined by “and” are separate entries in the source; they are usually repeats but may differ in a detail not shown here. Equal entries are not always repeated.

T1 sequence (Q13153 whole entry): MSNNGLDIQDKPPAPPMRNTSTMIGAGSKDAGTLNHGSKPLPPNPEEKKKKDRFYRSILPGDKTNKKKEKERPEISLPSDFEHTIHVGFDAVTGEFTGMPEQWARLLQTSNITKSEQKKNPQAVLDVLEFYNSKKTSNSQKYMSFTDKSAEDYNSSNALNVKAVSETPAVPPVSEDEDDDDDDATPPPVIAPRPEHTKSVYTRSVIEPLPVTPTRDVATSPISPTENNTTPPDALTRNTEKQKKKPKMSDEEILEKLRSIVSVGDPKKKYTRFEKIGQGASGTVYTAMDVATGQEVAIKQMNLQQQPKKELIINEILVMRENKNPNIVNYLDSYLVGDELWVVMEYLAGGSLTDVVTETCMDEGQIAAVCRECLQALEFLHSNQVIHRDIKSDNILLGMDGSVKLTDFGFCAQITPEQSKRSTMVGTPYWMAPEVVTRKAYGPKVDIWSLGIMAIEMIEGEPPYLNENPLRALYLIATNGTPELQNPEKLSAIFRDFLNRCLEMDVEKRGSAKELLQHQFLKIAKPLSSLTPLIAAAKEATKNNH

The first experiment addresses T1, Human PAK1 (Homo sapiens, UniProt Q13153).
T1 construct: purchased Promega V4479
The experiment in a line: PAK1 inhibitory activity, ADP-Glo kinase assay. The class given is biochemical. The settings on record: Human PAK1 25 ng; 10 min preincubation with test compound, 40 min with ATP/substrate mix; room temperature; luminescence; read-out: IC50 (PAK1 inhibitory activity). The method, then: The PAK inhibitory activities of the dehydrokawain compounds, mimosine or derivatives thereof and cucurbitacin I were determined. Assay of the PAK1 inhibitory activity was carried out using an ADP-Glo™ kinase assay kit (V4479, Promega, Madison, Wis.). Human PAK1 (10 μL) at a reaction concentration of 25 ng was incubated with 5 μL of the test compounds at the respective concentrations for 10 minutes. At the beginning of the reaction, 2.5×ATP/substrate mix (10 μL) was added and incubated for 40 minutes. The reaction was terminated by adding […]. In addition, 50 μL of Kinase detection reagent was added to cause the conversion of ADP to ATP and the emission reaction of freshly synthesized ATP. After incubation for 30 minutes, the intensity of emission in each well was measured by a Microplate Reader (MTP-880Lab, Corona) for 0.5 seconds as integration time. To the blank well was added all of the ingredients except for the test compounds and enzymes. The procedure was conducted at room temperature all the time. The inhibition rate was determined as the value on the kinase activity of control to which the inhibitor was not added.
(ADP-Glo turns the ADP formed in a reaction into a luminescent signal.)
By IC50 is commonly meant the concentration needed to halve the response being measured. As to `COc1cc(CCc2ccccc2)oc(=O)c1` [DDK, dihydro-5,6-dehydrokawain], the concentration for half-maximal inhibition (IC50) is 10 µM and 10.3 µM.
Consider `COc1cc(/C=C/c2ccccc2)oc(=O)c1` [DK, 5,6-dehydrokawain], for which the 50% inhibitory concentration (IC50) is 17 µM and 17.1 µM.
On the same count and under the same terms, the figure for `COc1cc(/C=C/c2ccc(OC)c(OC)c2)oc(=O)c1` [H1, 6-(3,4-dimethoxystyryl)-4-methoxy-2H-pyran-2-one] is 1.6 µM.
The same measure, in the same setting: the figure for `COc1cc(CCc2ccc(OC)c(OC)c2)oc(=O)c1` [H2, 6-(3,4-dimethoxyphenethyl)-4-methoxy-2H-pyran-2-one] is 1.2 µM; for `COc1cc(CCc2ccc(O)c(O)c2)oc(=O)c1` [H3, 6-(3,4-dihydroxyphenethyl)-4-methoxy-2H-pyran-2-one] it is 2 µM.
Turning to `N[C@@H](Cn1ccc(=O)c(O)c1)C(=O)N[C@@H](Cc1ccccc1)C(=O)N[C@@H](Cc1ccccc1)C(=O)N[C@@H](Cc1ccc(O)cc1)C(=O)O` [MFFY], the half-inhibitory concentration (IC50) amounted to 0.13 µM.
Turning to `N[C@@H](Cn1ccc(=O)c(O)c1)C(=O)N[C@@H](Cc1ccccc1)C(=O)N[C@@H](Cc1c[nH]c2ccccc12)C(=O)N[C@@H](Cc1ccc(O)cc1)C(=O)O` [MFWY], the IC50 was determined as 0.6 µM.
Still for that read-out and setting: the figure for `N[C@@H](Cn1ccc(=O)c(O)c1)C(=O)N[C@@H](Cc1ccccc1)C(=O)N[C@@H](Cc1ccc(O)cc1)C(=O)N[C@@H](Cc1ccc(O)cc1)C(=O)O` [MFYY] is 2.3 µM; for `N[C@@H](Cn1ccc(=O)c(O)c1)C(=O)O` [Mimosine, β-[N-(3-hydroxy-4-pyridone)]-α-aminopropionic acid] it is 37 µM.
Still for that read-out and setting: the figure for `N[C@H](CO)Cn1ccc(=O)c(O)c1` [Mimosinol, mimosinol] is 30 µM; for `O=c1c(O)c(-c2ccc(O)c(O)c2)oc2cc(O)cc(O)c12` [Quercetin, quercetin, reference compound] it is 340 µM.
As to `Oc1ccc(C=Cc2cc(O)cc(O)c2)cc1` [Resveratrol, resveratrol, reference compound], the IC50 is 15 µM.

The experiment is the same for the next values; noted with them: IC50 (PAK1 inhibitory activity), Human PAK1 25 ng; 10 min preincubation with test compound, 40 min with ATP/substrate mix; room temperature; luminescence.
`CC(C)(O)/C=C/C(=O)[C@](C)(O)[C@H]1[C@H](O)C[C@@]2(C)[C@@H]3CC=C4C(C=C(O)C(=O)C4(C)C)[C@]3(C)C(=O)C[C@]12C` (stereo partly shown) [Cucurbitacin I, cucurbitacin I] came in with an IC50 of 19 µM.
